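Values below derive from 48-hour exposures of cells grown in 96-well plates, with endpoints linearly interpolated between the two concentrations bracketing the appropriate inhibition level. TGI: concentration producing complete growth inhibition.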
Assays:
Test in all cases: inhibition of tumour cell growth, NCI panel, 48 h
[1] = system: NCI-H522 lung
[2] = system: A549 NSCLC
[3] = system: DLD-1 colon
[4] = system: NCI-H23 lung
[5] = system: RXF-631 renal
[6] = system: OVCAR-3 ovarian
[7] = system: KM20L2 colon
[8] = system: SN12C renal
[9] = system: SW-620 colon
[10] = system: M14 melanoma
[11] = system: DMS 273 small cell lung
[12] = system: SNB-75 CNS
[13] = system: NCI-H460 lung
[14] = system: SF-539 CNS
[15] = system: SK-MEL-2 melanoma
[16] = system: ACHN renal
[17] = system: NCI-H226 lung
[18] = system: RPMI-8226 leukemia
[19] = system: RXF 393 renal
[20] = system: OVCAR-4 ovarian
[21] = system: IGROV1 ovarian
[22] = system: SNB-19 CNS
[23] = system: M19-MEL melanoma
[24] = system: HOP-18 NSCLC
[25] = system: HOP-62 NSCLC
[26] = system: MALME-3M melanoma
[27] = system: UACC-62 melanoma
[28] = system: OVCAR-5 ovarian
[29] = system: SK-OV-3 ovarian
[30] = system: HCT-116 colon
[31] = system: 786-0 renal
[32] = system: EKVX NSCLC
[33] = system: LXFL 529 NSCLC
[34] = system: COLO 205 colon
[35] = system: SF-295 CNS
[36] = system: SK-MEL-28 melanoma
[37] = system: HT29 colon
[38] = system: A498 renal
[39] = system: DMS 114 small cell lung
[40] = system: HCC-2998 colon
[41] = system: U251 CNS
[42] = system: CAKI-1 renal
[43] = system: UACC-257 melanoma
[44] = system: HCT-15 colon
[45] = system: SNB-78 CNS
[46] = system: SF-268 CNS
[47] = system: KM12 colon
[48] = system: UO-31 renal
[49] = system: SR leukemia
[50] = system: CCRF-CEM leukemia
[51] = system: LOX IMVI melanoma
[52] = system: K-562 leukemia
[53] = system: HOP-92 NSCLC
[54] = system: HL-60(TB) leukemia
[55] = system: SK-MEL-5 melanoma
[56] = system: OVCAR-8 ovarian
[57] = system: TK-10 renal
[58] = system: MOLT-4 leukemia

SMILES: Cc1ccc(S(=O)(=O)N/N=C(/CC(=O)c2c(C)n([O-])c3ccccc3[n+]2=O)C(=O)Nc2ccc(C)c(C)c2)cc1
- TGI [1]: > 100 µM
- TGI [2]: > 100 µM
- TGI [3]: > 100 µM
- TGI [4]: > 100 µM
- TGI [5]: > 100 µM
- TGI [6]: 63.1 µM
- TGI [7]: > 100 µM
- TGI [8]: > 100 µM
- TGI [9]: > 100 µM
- TGI [10]: > 100 µM
- TGI [11]: > 100 µM
- TGI [12]: > 100 µM
- TGI [13]: > 100 µM
- TGI [14]: > 100 µM
- TGI [15]: > 100 µM
- TGI [16]: > 100 µM
- TGI [17]: > 100 µM
- TGI [18]: > 100 µM
- TGI [19]: > 100 µM
- TGI [20]: > 100 µM
- TGI [21]: > 100 µM
- TGI [22]: > 100 µM
- TGI [23]: 42.6 µM
- TGI [24]: > 100 µM
- TGI [25]: > 100 µM
- TGI [26]: > 100 µM
- TGI [27]: > 100 µM
- TGI [28]: > 100 µM
- TGI [29]: > 100 µM
- TGI [30]: > 100 µM
- TGI [31]: > 100 µM
- TGI [32]: > 100 µM
- TGI [33]: > 100 µM
- TGI [34]: > 100 µM
- TGI [35]: > 100 µM
- TGI [36]: > 100 µM
- TGI [37]: > 100 µM
- TGI [38]: > 100 µM
- TGI [39]: 67.2 µM
- TGI [40]: > 100 µM
- TGI [41]: > 100 µM
- TGI [42]: > 100 µM
- TGI [43]: > 100 µM
- TGI [44]: > 100 µM
- TGI [45]: > 100 µM
- TGI [46]: > 100 µM
- TGI [47]: > 100 µM
- TGI [48]: > 100 µM

SMILES: C=CCNC(=O)/C=C\C(=O)O
- TGI [1]: > 100 µM
- TGI [49]: > 100 µM
- TGI [2]: > 100 µM
- TGI [3]: > 100 µM
- TGI [4]: > 100 µM
- TGI [5]: > 100 µM
- TGI [6]: > 100 µM
- TGI [7]: > 100 µM
- TGI [8]: > 100 µM
- TGI [9]: > 100 µM
- TGI [50]: > 100 µM
- TGI [10]: > 100 µM
- TGI [11]: > 100 µM
- TGI [12]: > 100 µM
- TGI [13]: > 100 µM
- TGI [14]: > 100 µM
- TGI [51]: > 100 µM
- TGI [52]: > 100 µM
- TGI [15]: > 100 µM
- TGI [16]: > 100 µM
- TGI [17]: > 100 µM
- TGI [19]: > 100 µM
- TGI [20]: > 100 µM
- TGI [21]: > 100 µM
- TGI [53]: > 100 µM
- TGI [22]: > 100 µM
- TGI [54]: > 100 µM
- TGI [23]: > 100 µM
- TGI [24]: > 100 µM
- TGI [25]: > 100 µM
- TGI [26]: > 100 µM
- TGI [27]: > 100 µM
- TGI [28]: > 100 µM
- TGI [29]: > 100 µM
- TGI [55]: > 100 µM
- TGI [56]: > 100 µM
- TGI [30]: > 100 µM
- TGI [31]: > 100 µM
- TGI [32]: > 100 µM
- TGI [33]: > 100 µM
- TGI [34]: > 100 µM
- TGI [35]: > 100 µM
- TGI [57]: > 100 µM
- TGI [36]: > 100 µM
- TGI [37]: > 100 µM
- TGI [38]: > 100 µM
- TGI [39]: > 100 µM
- TGI [40]: > 100 µM
- TGI [41]: > 100 µM
- TGI [42]: > 100 µM
- TGI [58]: > 100 µM
- TGI [43]: > 100 µM
- TGI [44]: > 100 µM
- TGI [45]: > 100 µM
- TGI [46]: > 100 µM
- TGI [47]: > 100 µM
- TGI [48]: > 100 µM

SMILES: C[N+]1(C)C/C(=C/c2ccc(F)cc2)C(=O)/C(=C\c2ccc(F)cc2)C1
- TGI [1]: 36.9 µM
- TGI [2]: > 100 µM
- TGI [3]: > 100 µM
- TGI [4]: > 100 µM
- TGI [5]: > 100 µM
- TGI [6]: > 100 µM
- TGI [7]: > 100 µM
- TGI [8]: 11.9 µM
- TGI [9]: > 100 µM
- TGI [50]: 68.5 µM
- TGI [10]: > 100 µM
- TGI [11]: 86.2 µM
- TGI [12]: > 100 µM
- TGI [13]: > 100 µM
- TGI [14]: > 100 µM
- TGI [51]: > 100 µM
- TGI [52]: > 100 µM
- TGI [15]: > 100 µM
- TGI [16]: > 100 µM
- TGI [18]: 57.8 µM
- TGI [19]: > 100 µM
- TGI [20]: > 100 µM
- TGI [21]: 70.1 µM
- TGI [53]: > 100 µM
- TGI [22]: > 100 µM
- TGI [54]: 50.3 µM
- TGI [23]: > 100 µM
- TGI [24]: > 100 µM
- TGI [25]: > 100 µM
- TGI [26]: > 100 µM
- TGI [27]: 33.5 µM
- TGI [28]: > 100 µM
- TGI [29]: > 100 µM
- TGI [56]: > 100 µM
- TGI [30]: > 100 µM
- TGI [31]: > 100 µM
- TGI [32]: > 100 µM
- TGI [33]: > 100 µM
- TGI [34]: > 100 µM
- TGI [35]: > 100 µM
- TGI [57]: > 100 µM
- TGI [36]: 40.8 µM
- TGI [38]: > 100 µM
- TGI [39]: > 100 µM
- TGI [40]: > 100 µM
- TGI [41]: 42.7 µM
- TGI [58]: 45.5 µM
- TGI [43]: > 100 µM
- TGI [44]: > 100 µM
- TGI [45]: > 100 µM
- TGI [46]: > 100 µM
- TGI [47]: > 100 µM
- TGI [48]: > 100 µM

SMILES: O=c1c2ccccc2nc(/C=C(\O)c2ccccc2)n1-c1ccccc1Cl
- TGI [1]: > 100 µM
- TGI [49]: > 100 µM
- TGI [2]: > 100 µM
- TGI [3]: > 100 µM
- TGI [4]: > 100 µM
- TGI [5]: > 100 µM
- TGI [6]: > 100 µM
- TGI [7]: > 100 µM
- TGI [8]: > 100 µM
- TGI [9]: > 100 µM
- TGI [50]: > 100 µM
- TGI [10]: > 100 µM
- TGI [11]: > 100 µM
- TGI [12]: > 100 µM
- TGI [13]: > 100 µM
- TGI [14]: > 100 µM
- TGI [51]: > 100 µM
- TGI [52]: > 100 µM
- TGI [15]: > 100 µM
- TGI [16]: > 100 µM
- TGI [17]: > 100 µM
- TGI [19]: > 100 µM
- TGI [20]: > 100 µM
- TGI [21]: > 100 µM
- TGI [53]: > 100 µM
- TGI [22]: > 100 µM
- TGI [54]: > 100 µM
- TGI [23]: > 100 µM
- TGI [24]: > 100 µM
- TGI [25]: > 100 µM
- TGI [26]: > 100 µM
- TGI [27]: > 100 µM
- TGI [28]: > 100 µM
- TGI [29]: > 100 µM
- TGI [55]: > 100 µM
- TGI [56]: > 100 µM
- TGI [30]: > 100 µM
- TGI [31]: > 100 µM
- TGI [32]: > 100 µM
- TGI [33]: > 100 µM
- TGI [34]: > 100 µM
- TGI [35]: > 100 µM
- TGI [57]: > 100 µM
- TGI [36]: > 100 µM
- TGI [37]: > 100 µM
- TGI [38]: > 100 µM
- TGI [39]: > 100 µM
- TGI [40]: > 100 µM
- TGI [41]: > 100 µM
- TGI [42]: > 100 µM
- TGI [58]: > 100 µM
- TGI [43]: > 100 µM
- TGI [44]: > 100 µM
- TGI [45]: > 100 µM
- TGI [46]: > 100 µM
- TGI [47]: > 100 µM
- TGI [48]: > 100 µM

SMILES: CC/C(CC(=O)CCC(=O)Nc1c(C)cccc1C)=N\NC(=O)NN
- TGI [49]: > 100 µM
- TGI [2]: > 100 µM
- TGI [3]: > 100 µM
- TGI [4]: > 100 µM
- TGI [5]: > 100 µM
- TGI [6]: > 100 µM
- TGI [7]: > 100 µM
- TGI [8]: > 100 µM
- TGI [9]: > 100 µM
- TGI [50]: > 100 µM
- TGI [10]: > 100 µM
- TGI [13]: > 100 µM
- TGI [14]: > 100 µM
- TGI [52]: > 100 µM
- TGI [15]: > 100 µM
- TGI [16]: > 100 µM
- TGI [19]: > 100 µM
- TGI [20]: > 100 µM
- TGI [21]: > 100 µM
- TGI [53]: > 100 µM
- TGI [22]: > 100 µM
- TGI [54]: > 100 µM
- TGI [23]: > 100 µM
- TGI [24]: > 100 µM
- TGI [26]: > 100 µM
- TGI [27]: > 100 µM
- TGI [28]: > 100 µM
- TGI [55]: > 100 µM
- TGI [56]: > 100 µM
- TGI [30]: > 100 µM
- TGI [31]: > 100 µM
- TGI [32]: > 100 µM
- TGI [33]: > 100 µM
- TGI [34]: > 100 µM
- TGI [35]: > 100 µM
- TGI [57]: > 100 µM
- TGI [37]: > 100 µM
- TGI [38]: > 100 µM
- TGI [40]: > 100 µM
- TGI [41]: > 100 µM
- TGI [58]: > 100 µM
- TGI [43]: > 100 µM
- TGI [44]: > 100 µM
- TGI [45]: > 100 µM
- TGI [46]: > 100 µM
- TGI [47]: > 100 µM
- TGI [48]: > 100 µM

Source: PubChem BioAssay (NCI)
